From article PMC6698794, “Catalytic Knockdown of miR-21 by Artificial Ribonuclease: Biological Performance in Tumor Model” (Frontiers in Pharmacology, 2019)

Experiments:
[1] = Nuclease resistance assay in DMEM with 10% fetal bovine serum; type: in vitro ADME; details: 0.1 µg/µl, DMEM with 10% FBS, 37°C; 12% PAAG/8M urea gel, Stains-All
Experimental: Oligonucleotides or conjugates (0.1 µg/µl) were incubated at 37°C in Dulbecco’s Modified Eagle Medium (DMEM) (Sigma, USA) with 10% fetal bovine serum (FBS; GE Healthcare, USA). Reactions were quenched in urea (8M) and immediately frozen in liquid nitrogen, prior to analysis of thawed samples in 12% PAAG/8M urea gels, using Tris-Borate-EDTA (TBE) as running buffer, Stains-All (MP Biomedicals, USA) and photographic gel documentation (VilberLourmat, France).

B16 melanoma cells = assay: Annexin V-FITC/PI apoptosis assay; type: cell-based, mouse; details: 1 µM with Lipofectamine; 24, 48, 72 h after transfection; maximum extent; flow cytometry
Experimental: (§1) B16 cells were pre-seeded (2 × 10^5 per well of 24-well plates) in DMEM/10% FBS a day before transfection. Medium was replaced with serum-free DMEM, prior to incubation for 4 h with h-ODN, 2′-OMe, Inh (hsa-miR-21 5 p inhibitor, Ambion, USA), miR-21-miRNase, or luc-POC, each (0.1 or 1 µM) pre-complexed with Lipofectamine (Thermo Fisher Scientific, USA) in Opti-MEM medium (Thermo Fisher Scientific, USA) according to manufacturer’s instructions, then cells were cultivated in fresh culture standard medium for 24–72 h.
At 24, 48, and 72 h after transfection, cells were harvested, washed twice with PBS, resuspended in Binding Buffer to a density of 2–5 × 10^5/ml, and incubated with annexin V-FITC and propidium iodide (PI) (ab14085, Abcam, UK) in the dark at room temperature for 15 min, prior to flow cytometry analysis (Novocyte CEA Biosciences, USA).
(§2) Figure 2 Biological effect of the miR-21-specific miRNase. (A) Apoptotic profile of B16 melanoma cells after transfection with miR-21-miRNase and control luc-POC. Cytofluorimetric analysis of cells after staining with Annexin V-FITC/PI 48 h after transfection with miRNase or luc-POC (1 µM) in complex with Lipofectamine2000. Q1—population of living cells; Q2—Annexin V-FITC+/PI-, early apoptosis; Q3—Annexin V-FITC+/PI+, late apoptosis; Q4—Annexin V-FITC-/PI+, necrosis. (B) Average percentage of apoptotic (early and late apoptosis) and necrotic B16 cell population. Data represent mean ± s.e. of four independent experiments.(C, D) Invasion activity of B16 cells after incubation with Lipofectamine (LF) alone or treated with either hairpin antisense oligonucleotide (h-ODN), hairpin 2′-OMe oligonucleotide (2′-OMe), commercial miR-21 inhibitor (Inh), miR-21-miRNase, and control conjugate (luc-POC) in the concentration of 1 µM. Migration of cells was recorded in real time using the xCELLigence cell analysis system. Control—B16 cells without treatment. Data represent mean ± s.d. of four independent experiments.

B16 cells = assay: In vitro invasiveness assay (xCELLigence, Matrigel-coated CIM-Plates); type: cell-based, mouse; details: 1 µM with Lipofectamine; compared with Lipofectamine alone
Experimental: as §1
Real-time cell analysis (xCELLigence, ACEABiosciences, USA) used CIM-Plates held at 37°C under an atmosphere of 5% CO2. Top chamber wells were coated with Matrigel (20 µl per well, diluted 1:40 with cold serum-free DMEM) and allowed to polymerize (4 h at 37°C under 5% CO2) prior to cell seeding. Bottom chamber wells were filled with DMEM/10% FBS (160 µl each), prior to assembly of the chambers, when serum-free DMEM was added to the top wells (30 µl each) and equilibrated (1 h at 37°C under 5% CO2). At 4 h after transfection, B16 cells (4 × 10^4) were seeded into each top chamber well in serum-free DMEM and pre-incubated for 30 min at room temperature before monitoring (xCELLigence set to collect impedance data, reported as cell index at least once every 30 min).
as §2

RLS40 lymphosarcoma [2] = assay: Tumor transplantation assay: RLS40 cells treated ex vivo, then inoculated intramuscularly; type: in vivo, CBA mice; details: cells treated with 1 µM before transplantation
Experimental: (§3) RLS40 ascites were taken from CBA mice intraperitoneally injected with tumor cells (2 × 10^6 in 0.2 ml buffered saline) into their abdominal cavities. RLS40 cells, isolated from ascites fluid by filtration through LSM were divided into seven portions: 1) untreated cells; 2) the cells incubated with Lipofectamine; the cells transfected with 1 µM of 3) h-ODN, 4) 2′-OMe, 5) Inh, 6) miR-21-miRNase, or 7) luc-POC each. After 4 h of transfection, cell suspensions (0.1 ml, 2 × 10^6 cells) were intramuscularly inoculated into the right lower limb of CBA mice for solid tumor development. As soon as tumors began to be palpable, the tumor volumes were measured every 2–3 days using calipers. Tumor volumes were calculated as V = (π/6 × length × width × height). Hepatic index was estimated as (liver weight/mouse weight) × 100% and as 5.0% for healthy CBA mice. Tumor doubling time (DT) was estimated as DT = (t − t0) × ln 2/(ln V − ln V0), where (t − t0) indicates the length of time between two measurements of tumor size and V0 and V denote the tumor volume at two points of the measurement ([Ozono et al., 2004]).
Figure 3 Antitumor effect of miR-21-specific miRNase. (A) Retardation of RLS40 growth in vivo after treatment of RLS40 cells with antisense oligonucleotides, control conjugate (luc-POC), or miR-21-miRNase. (B) Tumor volume on day 19 after RLS40 transplantation. Mice were injected with RLS40 cells either without any treatment (w/t) or treated with Lipofectamine (LF), commercial miR-21 inhibitor at concentration 0.1 µM (Inh 0.1, recommended) and 1 µM (Inh 1, in accordance to concentration of miRNase used in the study), control conjugate (luc-POC, 1 µM), hairpin 2′OMe oligonucleotide (2′-OMe, 1 µM), hairpin antisense oligonucleotide (h-ODN, 1 µM) or miR-21-specific miRNase (miR-21-miRNase, 1 µM). Data were statistically analyzed using two-way ANOVA with post hoc Tukey test. Data are presented as mean ± s.e. p-value indicates a statistically reliable difference. (C) Doubling time of RLS40 tumors after treatment with oligonucleotides and conjugates. TEXT PRINTED IN THE PICTURE: (C) untreated: DT, days: 2,45±0,49 | (C) LF: DT, days: 2,48±0,35 | (C) Inh 0.1: DT, days: 2,56±0,59 | (C) Inh 1: DT, days: 13,90±0,46 | (C) 2’-OMe: DT, days: 3,17±1,45 | (C) luc-POC: DT, days: 2,40±0,45 | (C) h-ODN: DT, days: 3,00±1,83 | (C) miR-21-miRNase: DT, days: 12,77±0,34

RLS40 lymphosarcoma [3] = assay: Hepatic index of mice implanted with treated RLS40 cells; type: in vivo; details: cells treated with 1 µM; (liver weight/mouse weight) × 100%; 5.0% for healthy CBA mice; Mean ± SE
Experimental: as §3
Supplementary Table 2. Hepatic indexes of mice implanted with RLS40 treated with antisense
oligonucleotides, control luc-POC and miR-21-miRNase
Type of treatment Hepatic index, %* p-value (vs control)
* – Mean ± SE; s.i. – statistically insignificant
Hepatic index was estimated as (liver weight/mouse weight) × 100% and as 5.0% for healthy CBA
The MDR status of RLS40 may add to the burden on the liver, when this type of tumor
metastasizes into the liver (Sen’kova et al., 2012). Ex vivo treatment of RLS40 cells by
oligonucleotides and miRNase avoids the toxic effect of antisense oligonucleotides, their conjugates
and transfection reagents directly on the tumor-bearing animal. This may allow consideration of
whether the decrease of migration activity of tumor cells translated into reduced metastatic burden of
RLS40 on the liver. Treatment of the cells seeding the tumor may not reduce migration and […]

Row | Substance | Survival (intact) in serum-containing medium [1] | Necrosis of melanoma B16 cells (Annexin V-FITC-/PI+) (B16 melanoma cells) | Migration rate of transfected B16 cells (in words) (B16 cells) | Tumor doubling time against w/t (in words) (RLS40 lymphosarcoma [2]) | Tumor growth (in words) (RLS40 lymphosarcoma [2]) | Hepatic index (RLS40 lymphosarcoma [3]) [%]
1 | ODN: linear 14-mer deoxyribooligonucleotide TCAGTCTGATAAGC (unmodified DNA) | rapidly degraded | – | – | – | – | –
2 | acetyl-[(LeuArg)2Gly]2-aminohexyl-CGATAAATAACGCGСAAGTCAGCGAAAGCTGACTTG [luc-POC, control peptide-oligonucleotide conjugate; same hairpin, complementary part replaced by luciferase gene fragment] | – | up to 6.5% | almost the same rate as cells incubated with Lipofectamine | did not show a statistically significant difference | did not differ | 5.56±0.11
